Patent US12048686B2, “Compositions and methods for activating NRF2-dependent gene expression” (The University of Chicago, priority 2018, dated 2024)

Experiments:
[1] = LC-MS quantification of compound incubated with or without GSH (glutathione reactivity); format: physicochemical; details: 50 μM compound, GSH 1 mM in PBS, 1 hour and 48 hours
Procedure: FIG. 4 A high throughput screen identifies a non-covalent NRF2 activator chemical series which activate a robust NRF2 transcriptional program in multiple cell types. LC-MS quantification of CBR-470-1 (50 μM) incubated in the presence or absence of GSH (1 mM) in PBS for 1 hour (left) and 48 hours (right). Relative ion intensities within each time point were compared with representative chromatograms shown (n=2).

KEAP1 [2] = assay: Western blot of KEAP1 / HMW-KEAP1 formation in treated cells (HEK293T FLAG-KEAP1, IMR32); format: cell-based, human
Procedure: FLAG-tagged Protein Expression and Western Blotting. Full-length, human PGK1 (NM_000291, Origene) transiently expressed from a pCMV6 entry vector with a C-terminal Myc-DDK tag; full-length, human KEAP1 (28023, Addgene) was transiently expressed from a pcDNA/FRT/TO plasmid with a C-terminal 3×FLAG tag. All references to FLAG-PGK1 or FLAG-KEAP1 represent the proteins in the aforementioned vectors, respectively. Transient protein expression was performed in confluent 10 cm plates of HEK293T cells by transfection of 1 μg plasmid with Lipofectamine 2000 (Invitrogen) according to manufacturer's protocol. For in situ compound or metabolite treatment experiments, compounds were added approximately 24 hours after transfection, and incubated for the indicated duration. For FLAG-KEAP1 western blotting and immunoprecipitation experiments, cells were harvested by scraping, pelleted by centrifugation, washed twice with PBS and lysed in 8 M urea, 50 mM NH4HCO3, phosphatase inhibitor cocktail (Sigma Aldrich), and EDTA-free complete protease inhibitor (Roche), pH 8.0, at 4° C. Lysate was sonicated (Fisher Scientific FB-505), insoluble debris cleared by centrifugation, and the supernatant was diluted into 4× Laemmli buffer containing 50 mM dithiothreitol (DTT) as a reducing agent. Samples were prepared for SDS-PAGE by heating to 95° C. for 5 minutes, cooled to room temperature, resolved on NuPAGE Novex 4-12% Bis-Tris Protein Gels (Invitrogen), and transferred onto nitrocellulose membranes by standard western blotting methods. Membranes were blocked in 2% BSA in TBS containing 0.1% tween-20 (TBST) and probed with primary and secondary antibodies. Primary antibodies used in this study include: anti-FLAG-M2 (1:1000, F1804, Sigma Aldrich), anti-KEAP1 (1:500, SC-15246, Santa Cruz), anti-HSPA1A (1:1000, 4872, Cell Signaling), anti-ACTB (1:1000, 4790, Cell Signaling), anti-GAPDH (1:1000, 2118S, Cell Signaling) and TUBG (1:1000, 5886, Cell Signaling). […]

KEAP1 [3] = target: T1, KEAP1 (Homo sapiens, UniProt Q14145); assay: Targeted proteomic analysis of crosslinked KEAP1 peptides; format: cell-based; details: gel-isolated HMW-KEAP1 vs monomeric KEAP1
T1 construct: full-length, human KEAP1 (28023, Addgene) was transiently expressed from a pcDNA/FRT/TO plasmid with a C-terminal 3×FLAG tag; host or cells: HEK293T
T1 sequence (Q14145 whole entry): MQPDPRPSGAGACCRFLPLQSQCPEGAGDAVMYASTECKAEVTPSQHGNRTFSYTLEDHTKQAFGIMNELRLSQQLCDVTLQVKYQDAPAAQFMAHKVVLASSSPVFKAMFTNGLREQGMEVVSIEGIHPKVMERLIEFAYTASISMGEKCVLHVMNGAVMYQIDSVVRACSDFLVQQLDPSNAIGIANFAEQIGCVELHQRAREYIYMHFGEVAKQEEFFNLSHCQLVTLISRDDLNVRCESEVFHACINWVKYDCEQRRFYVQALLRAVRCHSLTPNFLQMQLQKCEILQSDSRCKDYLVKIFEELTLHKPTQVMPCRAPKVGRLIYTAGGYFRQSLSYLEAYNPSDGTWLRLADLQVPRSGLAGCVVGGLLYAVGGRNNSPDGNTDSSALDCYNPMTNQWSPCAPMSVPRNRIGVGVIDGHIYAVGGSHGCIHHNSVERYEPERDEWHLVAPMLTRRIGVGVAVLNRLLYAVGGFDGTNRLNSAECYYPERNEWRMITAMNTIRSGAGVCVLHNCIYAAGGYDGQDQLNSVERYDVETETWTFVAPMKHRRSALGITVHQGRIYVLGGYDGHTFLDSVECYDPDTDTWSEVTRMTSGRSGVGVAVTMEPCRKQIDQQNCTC
Procedure: In-gel digestion of KEAP1 Targeted proteomic analyses of KEAP1 protein were performed by running anti-FLAG enriched HMW-KEAP1 and LMW-KEAP1 (from both CBR-470-1 or MGx treatments as above) on SDS-PAGE gels, and isolated gel pieces were digested in-gel with sequencing grade trypsin (Promega), as previously reported^35. Tryptic peptides from in-gel tryptic digestions were dissolved in 100 mM Tris-HCl, pH 8.0, with 2 mM of CaCl2), and further digested with mass spectrometry-grade chymotrypsin (Thermo Scientific) according to manufacturer's protocol. Chymotryptic digestion reactions were stopped by acidification, and desalted on Ziptip C18 tips.
Targeted proteomic analysis of crosslinked KEAP1 peptides. Double digested KEAP1 peptides from isolated HMW-KEAP1 and monomeric KEAP1 were analyzed by LC-MS/MS on an Easy-nLC 1000 ultra-high pressure LC system coupled to a Q Exactive HF orbitrap and Easy-Spray nanosource as indicated above. Candidate peptides were initially searched by manual inspection of chromatograms and MS1 spectra for m/z values of peptide candidates from predicted digestion sites, crosslink sites and differential presence in HMW- and monomeric KEAP1 from both CBR-470-1 and MGx treated samples. Extracted MS1 ions of the candidates were present in HMW-KEAP1 digests but not in LMW-KEAP1 digests. […]

| SMILES | reactivity in glutathione assays [1] | KEAP1 levels and α-pgK immunoreactive bands (KEAP1 [2]; IMR32 cells, 30 minutes) | high molecular weight KEAP1 (HMW-KEAP1) band (KEAP1 [2]; Western blot of treated cells) | MICA crosslinked C151-R135 KEAP1 peptide (KEAP1 [3]) | formation of HMW-KEAP1 (KEAP1 [2]; treatment of cell lysates or live cells with metabolite) |
| --- | --- | --- | --- | --- | --- |
| CC(C)CN[C@H]1CS(=O)(=O)C[C@@H]1S(=O)(=O)c1ccc(Cl)cc1 [CBR-470-1] | not reactive in glutathione assays | did not result in altered KEAP1 levels, or any α-pgK immunoreactive bands | dose-dependent, high molecular weight KEAP1 (HMW-KEAP1) band | MICA crosslink between C151 and R135 was identified in isolated HMW-KEAP1 |  |
| CC(=O)C=O [MGx, methylglyoxal, reference compound] |  |  |  | MICA crosslink between C151 and R135 was identified in isolated HMW-KEAP1 | selective formation of HMW-KEAP1 |
